Entries after “also recorded” stand apart in the source; their conditions may differ. Read-outs that look alike come from different tables or passages of the source.
What was measured:
[1] = Phase I trial, monotherapy and carboplatin combination: pharmacokinetics; assay type: in vivo, human; conditions: for half-life: human, plasma
Text: (§1) Pts with advanced solid tumors enrolled in 2 sequential parts.

[2] = Phase I trial, monotherapy: adverse events and DLTs; assay type: in vivo, human; conditions: for Drug-related G3-4 AEs / Dose-limiting toxicities (DLT): Part A; for Dose-limiting toxicities (DLT): once weekly IV monotherapy 60 to 480 mg/m^2
Text: as §1
Eleven of the subjects were given a once weekly dosage of Compound A-2 as a monotherapy. Six of the subjects were given a twice weekly dosage of Compound A-2 as a monotherapy. […] DLTs were defined according to the National Cancer Institute (NCI) CTCAE (Version 4).
In part A, single pt cohorts received a compound of Formula A-2 once weekly in 21-day cycles with 3+3 dose escalation cohorts being implemented if grade 2 drug-related adverse events (AEs) occurred. […] If a DLT was reported, the cohort was expanded to include 3 additional pts with subsequent dose escalation being permitted if no further DLTs occurred. Paired pre- and post-treatment biopsies from selected pts in part B were assessed for pCHK1 levels by immunohistochemistry. Models based on preclinical and clinical data were used to simulate hematologic toxicities and pCHK1 inhibition for pts treated with a compound of Formula A-2 and CP.

[3] = monotherapy 60 mg/m^2 Once Weekly (n = 1)
[4] = monotherapy 120 mg/m^2 Once Weekly (n = 2)
[5] = monotherapy 240 mg/m^2 Once Weekly (n = 1)
[6] = monotherapy 240 mg/m^2 Twice Weekly (n = 6)
[7] = monotherapy 480 mg/m^2 Once Weekly (n = 7)

CNCc1ccc(-c2cc(-c3nc(-c4ccc(S(=O)(=O)C(C)C)cc4)cnc3N)on2)cc1 [Compound A-2]
Drug interaction with carboplatin ([1]; Compound A-2 exposure alone versus combined with CP): no apparent drug interactions; also recorded: no interaction | Accumulation ([1]; IV, patients): no accumulation | AUC and Cmax versus dose ([1]; all DLs): linear | Pharmacokinetics (PK) versus dose ([1]; as a monotherapy and in combination with CP): dose proportional | half-life ([1]; intravenous, monotherapy and combination with carboplatin, read-out: Terminal elimination half-life (t1/2) (converted)): ~16 h | half-life ([1]; IV, patients, read-out: Median half-life (converted)): 16 h | Exposure (AUCinf and Cmax) versus dose ([1]; monotherapy and combination with carboplatin): increased proportionally | Drug-related G3-4 AEs ([2]; monotherapy): no | Drug-related G3-4 AEs ([2]; monotherapy, listed as Formula A-2): none | Dose-limiting toxicities (DLT) [2]: no dose-limiting toxicities; also recorded: no dose limiting toxicities | Dose-limiting toxicities (DLT) ([2]; listed as Formula A-2): No DLTs | Tolerability ([2]; as monotherapy and in combination with CP, CIS, or gem): well tolerated | Treatment related adverse event: Any Event, All Grades [2, 3]: 1 (100) n (%) | Treatment related adverse event: Any Event, Grade ≥ 3 [2, 3]: 0 n (%) | Treatment related adverse event: Catheter site related reaction, All Grades [2, 3]: 0 n (%) | Treatment related adverse event: Catheter site related reaction, Grade ≥ 3 [2, 3]: 0 n (%) | Treatment related adverse event: Flushing, All Grades [2, 3]: 0 n (%) | Treatment related adverse event: Flushing, Grade ≥ 3 [2, 3]: 0 n (%) | Treatment related adverse event: Headache, All Grades [2, 3]: 0 n (%) | Treatment related adverse event: Headache, Grade ≥ 3 [2, 3]: 0 n (%) | Treatment related adverse event: Infusion related reaction, All Grades [2, 3]: 0 n (%) | Treatment related adverse event: Infusion related reaction, Grade ≥ 3 [2, 3]: 0 n (%) | Treatment related adverse event: Nausea, All Grades [2, 3]: 0 n (%) | Treatment related adverse event: Nausea, Grade ≥ 3 [2, 3]: 0 n (%) | Treatment related adverse event: Pruritus, All Grades [2, 3]: 0 n (%) | Treatment related adverse event: Pruritus, Grade ≥ 3 [2, 3]: 0 n (%) | Treatment related adverse event: Any Event, All Grades [2, 4]: 4 (50.0) n (%) | Treatment related adverse event: Any Event, Grade ≥ 3 [2, 4]: 0 n (%) | Treatment related adverse event: Catheter site related reaction, All Grades [2, 4]: 0 n (%) | Treatment related adverse event: Catheter site related reaction, Grade ≥ 3 [2, 4]: 0 n (%) | Treatment related adverse event: Flushing, All Grades [2, 4]: 0 n (%) | Treatment related adverse event: Flushing, Grade ≥ 3 [2, 4]: 0 n (%) | Treatment related adverse event: Headache, All Grades [2, 4]: 0 n (%) | Treatment related adverse event: Headache, Grade ≥ 3 [2, 4]: 0 n (%) | Treatment related adverse event: Infusion related reaction, All Grades [2, 4]: 0 n (%) | Treatment related adverse event: Infusion related reaction, Grade ≥ 3 [2, 4]: 0 n (%) | Treatment related adverse event: Nausea, All Grades [2, 4]: 0 n (%) | Treatment related adverse event: Nausea, Grade ≥ 3 [2, 4]: 0 n (%) | Treatment related adverse event: Pruritus, All Grades [2, 4]: 0 n (%) | Treatment related adverse event: Pruritus, Grade ≥ 3 [2, 4]: 0 n (%) | Treatment related adverse event: Any Event, All Grades [2, 5]: 0 n (%) | Treatment related adverse event: Any Event, Grade ≥ 3 [2, 5]: 0 n (%) | Treatment related adverse event: Catheter site related reaction, All Grades [2, 5]: 0 n (%) | Treatment related adverse event: Catheter site related reaction, Grade ≥ 3 [2, 5]: 0 n (%) | Treatment related adverse event: Flushing, All Grades [2, 5]: 0 n (%) | Treatment related adverse event: Flushing, Grade ≥ 3 [2, 5]: 0 n (%) | Treatment related adverse event: Headache, All Grades [2, 5]: 0 n (%) | Treatment related adverse event: Headache, Grade ≥ 3 [2, 5]: 0 n (%) | Treatment related adverse event: Infusion related reaction, All Grades [2, 5]: 0 n (%) | Treatment related adverse event: Infusion related reaction, Grade ≥ 3 [2, 5]: 0 n (%) | Treatment related adverse event: Nausea, All Grades [2, 5]: 0 n (%) | Treatment related adverse event: Nausea, Grade ≥ 3 [2, 5]: 0 n (%) | Treatment related adverse event: Pruritus, All Grades [2, 5]: 0 n (%) | Treatment related adverse event: Pruritus, Grade ≥ 3 [2, 5]: 0 n (%) | Treatment related adverse event: Any Event, All Grades [2, 6]: 6 (100) n (%) | Treatment related adverse event: Any Event, Grade ≥ 3 [2, 6]: 1 (16.7) n (%) | Treatment related adverse event: Catheter site related reaction, All Grades [2, 6]: 2 (33.3) n (%) | Treatment related adverse event: Catheter site related reaction, Grade ≥ 3 [2, 6]: 0 n (%) | Treatment related adverse event: Flushing, All Grades [2, 6]: 1 (16.7) n (%) | Treatment related adverse event: Flushing, Grade ≥ 3 [2, 6]: 0 n (%) | Treatment related adverse event: Headache, All Grades [2, 6]: 0 n (%) | Treatment related adverse event: Headache, Grade ≥ 3 [2, 6]: 0 n (%) | Treatment related adverse event: Infusion related reaction, All Grades [2, 6]: 4 (16.7) n (%) | Treatment related adverse event: Infusion related reaction, Grade ≥ 3 [2, 6]: 0 n (%) | Treatment related adverse event: Nausea, All Grades [2, 6]: 0 n (%) | Treatment related adverse event: Nausea, Grade ≥ 3 [2, 6]: 0 n (%) | Treatment related adverse event: Pruritus, All Grades [2, 6]: 0 n (%) | Treatment related adverse event: Pruritus, Grade ≥ 3 [2, 6]: 0 n (%) | Treatment related adverse event: Any Event, All Grades [2, 7]: 7 (100) n (%) | Treatment related adverse event: Any Event, Grade ≥ 3 [2, 7]: 0 n (%) | Treatment related adverse event: Catheter site related reaction, All Grades [2, 7]: 0 n (%) | Treatment related adverse event: Catheter site related reaction, Grade ≥ 3 [2, 7]: 0 n (%) | Treatment related adverse event: Flushing, All Grades [2, 7]: 3 (42.9) n (%) | Treatment related adverse event: Flushing, Grade ≥ 3 [2, 7]: 0 n (%) | Treatment related adverse event: Headache, All Grades [2, 7]: 2 (28.6) n (%) | Treatment related adverse event: Headache, Grade ≥ 3 [2, 7]: 0 n (%) | Treatment related adverse event: Infusion related reaction, All Grades [2, 7]: 1 (14.3) n (%) | Treatment related adverse event: Infusion related reaction, Grade ≥ 3 [2, 7]: 0 n (%) | Treatment related adverse event: Nausea, All Grades [2, 7]: 2 (28.6) n (%) | Treatment related adverse event: Nausea, Grade ≥ 3 [2, 7]: 0 n (%) | Treatment related adverse event: Pruritus, All Grades [2, 7]: 2 (28.6) n (%) | Treatment related adverse event: Pruritus, Grade ≥ 3 [2, 7]: 0 n (%) | Treatment related adverse event: Any Event, All Grades ([2]; monotherapy, Total (N = 17)): 15 (88.2) n (%) | Treatment related adverse event: Any Event, Grade ≥ 3 ([2]; monotherapy, Total (N = 17)): 1 (5.9) n (%) | Treatment related adverse event: Catheter site related reaction, All Grades ([2]; monotherapy, Total (N = 17)): 2 (11.8) n (%) | Treatment related adverse event: Catheter site related reaction, Grade ≥ 3 ([2]; monotherapy, Total (N = 17)): 0 n (%) | Treatment related adverse event: Flushing, All Grades ([2]; monotherapy, Total (N = 17)): 4 (23.5) n (%) | Treatment related adverse event: Flushing, Grade ≥ 3 ([2]; monotherapy, Total (N = 17)): 0 n (%) | Treatment related adverse event: Headache, All Grades ([2]; monotherapy, Total (N = 17)): 2 (11.8) n (%) | Treatment related adverse event: Headache, Grade ≥ 3 ([2]; monotherapy, Total (N = 17)): 0 n (%) | Treatment related adverse event: Infusion related reaction, All Grades ([2]; monotherapy, Total (N = 17)): 2 (11.8) n (%) | Treatment related adverse event: Infusion related reaction, Grade ≥ 3 ([2]; monotherapy, Total (N = 17)): 0 n (%) | Treatment related adverse event: Nausea, All Grades ([2]; monotherapy, Total (N = 17)): 2 (11.8) n (%) | Treatment related adverse event: Nausea, Grade ≥ 3 ([2]; monotherapy, Total (N = 17)): 0 n (%) | Treatment related adverse event: Pruritus, All Grades ([2]; monotherapy, Total (N = 17)): 2 (11.8) n (%) | Treatment related adverse event: Pruritus, Grade ≥ 3 ([2]; monotherapy, Total (N = 17)): 0 n (%) | Dose at which adverse events began ([2]; once weekly monotherapy): 480 mg/m^2
